This note sets out measurements from patent publication US7279444B2, “Substituted benzoylpyrazoles” (Bayer CropScience GmbH, priority 1999, dated 2007).

Marks after values point to notes of the source that are not given here.

This data set in a line: log P by HPLC on reversed-phase column (C 18), acidic range. The data set is classed as physicochemical. How it is done:
Temperature: 43° C. […] The log P values given in Table 3 were determined in accordance with EEC Directive 79/831 Annex V.A8 by HPLC (High Performance Liquid Chromatography) on a reversed-phase column (C 18). Temperature: 43° C. […] The log P values given in Tables 4 were determined in accordance with EEC Directive 79/831 Annex V.A8 by HPLC (High Performance Liquid Chromatography) on a reversed-phase column (C 18). Temperature: 43° C.
As to `CCn1nc(C)c(C(=O)c2ccc(Cl)c(Cn3nc(C)n(C)c3=O)c2Cl)c1O` [Example 45], the logP entry is given as “logP = 1.40^a)”. Consider `CCn1ncc(C(=O)c2ccc(Cl)c(CN3CCN(C)C3=O)c2Cl)c1O` [ID-1], for which the logP entry is listed as “logP = 1.64^a)”. `CCn1ncc(C(=O)c2ccc(C(F)(F)F)cc2Cn2nc(SC)n(C)c2=O)c1OC(C)C` [ID-32]: the logP result is reported as “logP = 3.00^a)”.

`CCOC(=O)c1ccc(Br)c(Cn2nc(Br)n(C)c2=O)c1` [IV-39]: the logP result is “logP = 2.64^a)”.

Regarding `CCn1ncc(C(=O)c2ccc(C(F)(F)F)cc2Cn2nc(SC)n(C)c2=O)c1OCc1ccc(Br)cc1` [ID-36], the logP entry is given as “logP = 3.89^a)”. As for `COC(=O)c1ccc(S(C)(=O)=O)cc1Cn1nc(SC)n(C)c1=O` [IV-114], the entry is “logP = 1.53^a)”.

As for `CCOC(=O)c1ccc(F)cc1Cn1nc(COC)n(C)c1=O` [IV-96], the logP result is recorded as “logP = 2.05^a)”. For `CCn1ncc(C(=O)c2ccc(Cl)c(Cn3nc(C)n(C4CC4)c3=O)c2Cl)c1O` [Example 36], the logP entry is “(IB)logP = 1.64^a)”. As for `CCn1ncc(C(=O)c2ccc(Cl)c(Cn3nc(C4CC4)n(C)c3=O)c2Cl)c1O` [Example 26], the entry is “(IB)logP = 1.82^a)”; as for `CCOc1nn(Cc2cc(C(F)(F)F)ccc2C(=O)c2cnn(CC)c2OCc2ccc(Br)cc2)c(=O)n1C` [ID-19], “logP = 3.97^a)”; as for `CCOc1nn(Cc2cc(I)ccc2C(=O)OC)c(=O)n1C` [IV-116], “logP = 2.68^a)”. For the molecule `CCOC(=O)c1ccc(Br)cc1Cn1nc(C)oc1=O` [IV-73], the logP entry is reported as “logP = 2.88^a)”. Consider `CCOc1nn(Cc2c(Cl)ccc(C(=O)c3c(C)nn(CC)c3O)c2Cl)c(=O)n1C` [Example 42], for which the logP entry is on record as “logP = 2.02^a)”.

As to `CCn1ncc(C(=O)c2ccc(Cl)c(Cn3nc(N(C)C)n(C4CC4)c3=O)c2Cl)c1O` [Example 37], the logP result is “(IB)logP = 2.04^a)”.

With `CCCOC(=O)c1ccc(C(F)(F)F)cc1Cn1nc(OCC)n(C2CC2)c1=O` [IV-50], the logP entry is recorded as “logP = 3.91^a)”.

Regarding `CCN1CCN(Cc2c(Cl)ccc(C(=O)c3cnn(CC)c3O)c2Cl)C1=O` [ID-56], the logP entry was “logP = 1.88^a)”. Regarding `CCOc1nn(Cc2cc(C(F)(F)F)ccc2C(=O)c2cnn(CC)c2OCc2ccc(Cl)cc2)c(=O)n1C` [ID-22], the logP entry is given as “logP = 3.85^a)”. As for `CCOC(=O)c1ccc(Br)cc1Cn1nc2n(c1=O)CCCC2` [IV-69], the entry is “logP = 2.41^a)”; as for `CCOc1nn(Cc2cc(C(F)(F)F)ccc2C(=O)c2cnn(CC)c2OCc2cccc(C(F)(F)F)c2)c(=O)n1C` [ID-27], “logP = 3.94^a)”. For `CCn1nc(C)c(C(=O)c2ccc(Cl)c(Cn3nc(Br)n(C)c3=O)c2Cl)c1O` [Example 44], the logP result was “logP = 1.81^a)”. Turning to `CCn1ncc(C(=O)c2ccc(C(F)(F)F)cc2Cn2nc(COC)n(C)c2=O)c1O` [Example 65], the logP result is listed as “logP =1.98^a)”. As for `CCn1ncc(C(=O)c2ccc(Cl)c(Cn3nc(Br)n(C)c3=O)c2Cl)c1O` [Example 24], the entry is “logP = 1.81^a)”. As for `CSc1nn(Cc2c(Cl)ccc(C(=O)c3cnn(C)c3O)c2Cl)c(=O)n1C` [Example 55], the entry is “logP = 1.67^a)”; as for `CCOC(=O)c1ccc(Br)cc1Cn1nc(N(C)C)n(C)c1=O` [IV-82], “logP = 2.60^a)”.

As to `CCOC(=O)c1ccc(Br)cc1Cn1nc(OCC(F)(F)F)n(C)c1=O` [IV-67], the logP entry is given as “logP = 3.31^a)”. Take `COC(=O)c1ccc(Cl)c(Cn2nc(N(C)C)n(C3CC3)c2=O)c1Cl` [IV-21]: the logP result is given as “logP = 2.42^a)”. As for `Cc1nn(C(C)(C)C)c(O)c1C(=O)c1ccc(Cl)c(Cn2nc(C)n(C)c2=O)c1Cl` [Example 50], the entry is “logP = 2.53^a)”; as for `COC(=O)c1ccc(Cl)c(Cn2nc(N(C)C)n(C)c2=O)c1Cl` [IV-12], “logP = 2.11^a)”. With `COC(=O)c1ccc(Cl)c(Cn2nc(C3CC3)n(C)c2=O)c1Cl` [IV-11], the logP result is “logP = 2.16^a)”. As for `Cc1nn(C)c(O)c1C(=O)c1ccc(F)cc1Cn1nc(N(C)C)n(C)c1=O` [Example 9], the entry is “logP = 1.32^a)”. As for `CCOC(=O)c1ccc(C(F)(F)F)cc1Cn1cnn(C)c1=O` [IV-74], the entry is “logP = 2.68^a)”. `COC(=O)c1ccc(Cl)c(Cn2nc(C)n(C3CC3)c2=O)c1Cl` [IV-20]: the logP result was “logP = 1.97^a)”. As for `CCn1nc(C)c(C(=O)c2ccc(Cl)c(CN3CCN(C)C3=O)c2Cl)c1O` [ID-52], the entry is “logP = 1.56^a)”; as for `CCn1ncc(C(=O)c2ccc(Cl)c(CN3CCCN(C)C3=O)c2Cl)c1O` [ID-2], “logP = 1.77^a)”. In the case of `COC(=O)c1ccc(Cl)c(CN2CCCN(C)C2=O)c1Cl` [IV-24], the logP result is “logP = 2.07^a)”. As to `CCOC(=O)c1ccc(Cl)cc1Cn1nc(C(F)(F)F)n(C)c1=O` [IV-43], the logP result is “logP = 3.31^a)”. As for `CCOC(=O)c1ccc(C(F)(F)F)cc1Cn1nc(OCC)n(C2CC2)c1=O` [IV-47], the entry is “logP = 3.48^a)”. For `COC(=O)c1ccc(C(F)(F)F)cc1Cn1nc(SC)n(C)c1=O` [IV-118], the logP entry is “logP = 2.65^a)”. As for `CCn1ncc(C(=O)c2ccc(Cl)c(Cn3nc(N(C)C)n(C)c3=O)c2Cl)c1O` [Example 28], the entry is “logP = 1.77^a)”; as for `CCn1ncc(C(=O)c2ccc(Cl)c(Cn3nc(C(F)(F)F)n(C)c3=O)c2Cl)c1O` [Example 17], “logP = 2.30^a)”. As for `CCOC(=O)c1ccc(F)cc1Cn1nc(OCC)n(C2CC2)c1=O` [IV-98], the entry is “logP = 2.89^a)”. As for `CCOc1nn(Cc2cc(S(C)(=O)=O)ccc2C(=O)OC)c(=O)n1C` [IV-115], the entry is “logP = 1.59^a)”. For `CCn1ncc(C(=O)c2ccc(Cl)c(Cn3nc(SC)n(C)c3=O)c2Cl)c1O` [Example 18], the logP result is “logP = 1.91^a)”. As for `C=CCOc1c(C(=O)c2ccc(C(F)(F)F)cc2Cn2nc(SC)n(C)c2=O)cnn1CC` [ID-33], the entry is “logP = 2.89^a)”. As for `COc1nn(Cc2cc(F)ccc2C(=O)c2c(C)nn(C)c2O)c(=O)n1C1CC1` [Example 10], the entry is “(IA)logP = 1.50^a)”. `Cc1nn(C)c(O)c1C(=O)c1ccc(Cl)c(CN2CCCN(C)C2=O)c1Cl` [ID-4]: the logP entry was “logP = 1.50^a)”.

With `Cc1nn(C(C)(C)C)c(O)c1C(=O)c1ccc(Cl)c(CN2CCN(C)C2=O)c1Cl` [ID-53], the logP result is listed as “logP = 2.79^a)”.

Regarding `CCCOc1nn(Cc2cc(C(F)(F)F)ccc2C(=O)OCC)c(=O)n1C` [IV-71], the logP entry is recorded as “logP = 3.54^a)”.

With `CCSc1nn(Cc2cc(C(F)(F)F)ccc2C(=O)c2cnn(CC)c2O)c(=O)n1C` [Example 5], the logP entry is recorded as “logP = 2.58^a)”. As for `Cc1nn(Cc2c(Cl)ccc(C(=O)c3cnn(C)c3O)c2Cl)c(=O)n1C` [Example 58], the entry is “logP = 1.19^a)”; as for `COC(=O)c1ccc(Cl)c(Cn2nc(Br)n(C)c2=O)c1Cl` [IV-9], “logP = 2.18^a)”. As for `CCOc1c(C(=O)c2ccc(C(F)(F)F)cc2Cn2nc(OCC)n(C)c2=O)cnn1CC` [ID-14], the entry is “logP = 2.82^a)”. As for `CCn1ncc(C(=O)c2ccc(S(C)(=O)=O)cc2Cn2nc(SC)n(C)c2=O)c1O` [Example 4], the entry is “logP = 1.24^a)”; as for `C=CCOc1c(C(=O)c2ccc(C(F)(F)F)cc2Cn2nc(OCC)n(C)c2=O)cnn1CC` [ID-16], “logP = 2.99^a)”; as for `COC(=O)c1ccc(Cl)c(Cn2nc(OCC(F)(F)F)n(C3CC3)c2=O)c1Cl` [IV-18], “logP = 3.05^a)”.

`CCOc1nn(Cc2cc(C(F)(F)F)ccc2C(=O)c2cnn(CC)c2OCc2ccc(C)cc2)c(=O)n1C` [ID-18]: the logP entry is on record as “logP = 3.79^a)”. As for `CCn1nc(C)c(C(=O)c2ccc(Cl)c(Cn3nc(OC)n(C)c3=O)c2Cl)c1O` [Example 43], the entry is “logP = 1.71^a)”; as for `CCn1ncc(C(=O)c2ccccc2-n2nc(C(F)(F)F)n(C)c2=O)c1O` [Example 15], “logP = 1.95^a)”.

On to `CCCOc1nn(Cc2cc(F)ccc2C(=O)OCC)c(=O)n1C` [IV-95], for which the logP result is on record as “logP = 2.96^a)”.

For the molecule `CCn1ncc(C(=O)c2ccc(C(F)(F)F)cc2Cn2nc(OC)n(C3CC3)c2=O)c1O` [Example 7], the logP result was “(IA)logP = 2.28^a)”.

Take `CCOc1nn(Cc2c(Cl)ccc(C(=O)c3cnn(CC)c3O)c2Cl)c(=O)n1C1CC1` [Example 32]: the logP entry is listed as “(IB)logP = 2.31^a)”. With `CCn1ncc(C(=O)c2ccc(C(F)(F)F)cc2Cn2nc(SC(C)C)n(C)c2=O)c1O` [Example 6], the logP result is “logP = 2.90^a)”.

Take `COC(=O)c1ccc(Cl)c(Cn2nc(C)n(C)c2=O)c1Cl` [IV-13]: the logP entry is “logP = 1.65^a)”. As for `CCOC(=O)c1ccc(Br)c(Cn2nc(C3CC3)n(C3CC3)c2=O)c1` [IV-41], the entry is “logP = 3.02^a)”; as for `CCOc1nn(Cc2cc(C(F)(F)F)ccc2C(=O)c2cnn(CC)c2OCc2ccccc2)c(=O)n1C` [ID-17], “logP = 3.45^a)”; as for `CCn1ncc(C(=O)c2ccc(Cl)c(Cn3nc(SC)n(C4CC4)c3=O)c2Cl)c1O` [Example 35], “(IB)logP = 2.27^a)”. As to `CCn1ncc(C(=O)c2ccc(Br)cc2-n2nc(C(F)(F)F)n(C)c2=O)c1O` [Example 27], the logP entry is reported as “logP = 2.55^a)”. As for `CCn1ncc(C(=O)c2ccc(C(F)(F)F)cc2Cn2nc(SC)n(C)c2=O)c1OCc1ccc([N+](=O)[O-])cc1` [ID-42], the entry is “logP = 3.26^a)”; as for `COC(=O)c1ccc(Cl)c(Cn2nc(OC)n(C3CC3)c2=O)c1Cl` [IV-15], “logP = 2.36^a)”. As for `Cc1nn(C)c(O)c1C(=O)c1ccc(Cl)c(Cn2nc(C)n(C)c2=O)c1Cl` [Example 54], the entry is “logP = 1.20^a)”; as for `CCn1ncc(C(=O)c2ccc(F)c(Cn3nc(C)n(C)c3=O)c2Cl)c1O` [Example 69], “logP = 1.76^a)”.
